Measurements: paper PMC9603373 (Microbiology Spectrum, 2022)
Like-named read-outs stand apart in the source and are kept apart here.

How the values were obtained:
[1] = human healthy volunteers, cited from earlier work; for cmax: mean
Description: Therefore, 45 mg/kg s.c. and 90 mg/kg s.c might represent human doses of 8 mg/kg and 12 mg/kg, respectively ([34]). […] Since the efficacy was much more pronounced in the infrequently administered dosing regimens, Cmax/MIC is likely the most predictive ([35], [36]). The selected rat dose from which to simulate the human dose is slightly different from the others ([37][–][39 ...

[2] = Single-dose pharmacokinetics in healthy rats; conditions: for auc / cmax: rounded mean of the PK study, repeated per rat; for AUC0–24: healthy male Wistar rats, UHPLC-ESI-MS/MS, mean (SD), n = 3, SD; for AUC0–24 / conc: plasma
Description: The experiments were performed in triplicate. […] Plasma was collected via centrifugation, and the samples were stored at −80°C until analysis.
All of the UHPLC-ESI-MS/MS analyses were performed using an Agilent 1290 UHPLC system coupled with an Agilent 6460 triple quadrupole mass spectrometer (Agilent Technologies, Santa Clara, CA, USA).

For CCCCCCCCCC(=O)N[C@@H](Cc1c[nH]c2ccccc12)C(=O)N[C@H](CC(N)=O)C(=O)N[C@@H](CC(=O)O)C(=O)N[C@@H]1C(=O)NCC(=O)N[C@@H](CCCN)C(=O)N[C@@H](CC(=O)O)C(=O)N[C@H](C)C(=O)N[C@@H](CC(=O)O)C(=O)NCC(=O)N[C@H](CO)C(=O)N[C@@H]([C@H](C)CC(=O)O)C(=O)N[C@@H](CC(=O)c2ccccc2N)C(=O)O[C@@H]1C [daptomycin, Daptomycin], the “AUC0–24” value ([1]; 8 mg/kg i.v.) is listed as 858.2 (24.9) mg × h/L, the “AUC0–24” value ([1]; 12 mg/kg i.v.) is listed as 1,277.4 (19.8) mg × h/L and the cmax ([1]; daily dose 8 mg/kg i.v.) is listed as 123.3 (13.0) mg/L. The cmax ([1]; daily dose 12 mg/kg i.v.) was 183.7 (13.6) mg/L, the auc ([2]; 12 mg/kg iv) was 228 and the cmax ([2]; 12 mg/kg iv) was 106. It also gave an auc ([2]; 45 mg/kg sc) of 987, a cmax ([2]; 45 mg/kg sc) of 123 and an auc ([2]; 90 mg/kg sc) of 2054. For the same compound, the cmax ([2]; 90 mg/kg sc) was 179, the “AUC0–24” value ([2]; single dose 12 mg/kg i.v.) was 228.2 (15.7) mg × h/L and the “AUC0–24” value ([2]; single dose 45 mg/kg s.c.) was 986.7 (185.6) mg × h/L. The “AUC0–24” value ([2]; single dose 90 mg/kg s.c.) was 2,053.6 (352.3) mg × h/L, the conc ([2]; single dose 12 mg/kg i.v., time 0 h, rat id 1) was 71 and the conc ([2]; single dose 12 mg/kg i.v., time 0 h, rat id 2) was 76. The conc ([2]; single dose 12 mg/kg i.v., time 0 h, rat id 3) was 171, the conc ([2]; single dose 12 mg/kg i.v., time 0.5 h, rat id 1) was 45 and the conc ([2]; single dose 12 mg/kg i.v., time 0.5 h, rat id 2) was 4. It also gave a conc ([2]; single dose 12 mg/kg i.v., time 0.5 h, rat id 3) of 19, a conc ([2]; single dose 12 mg/kg i.v., time 1 h, rat id 1) of 70 and a conc ([2]; single dose 12 mg/kg i.v., time 1 h, rat id 2) of 77. The conc ([2]; single dose 12 mg/kg i.v., time 1 h, rat id 3) was 81, the conc ([2]; single dose 12 mg/kg i.v., time 2 h, rat id 1) was 47 and the conc ([2]; single dose 12 mg/kg i.v., time 2 h, rat id 2) was 41. For the same compound, the conc ([2]; single dose 12 mg/kg i.v., time 2 h, rat id 3) was 50, the conc ([2]; single dose 12 mg/kg i.v., time 3 h, rat id 1) was 31 and the conc ([2]; single dose 12 mg/kg i.v., time 3 h, rat id 2) was 25. The conc ([2]; single dose 12 mg/kg i.v., time 3 h, rat id 3) was 27, the conc ([2]; single dose 12 mg/kg i.v., time 4 h, rat id 1) was 21 and the conc ([2]; single dose 12 mg/kg i.v., time 4 h, rat id 2) was 21. It also gave a conc ([2]; single dose 12 mg/kg i.v., time 4 h, rat id 3) of 21, a conc ([2]; single dose 12 mg/kg i.v., time 5 h, rat id 1) of 10 and a conc ([2]; single dose 12 mg/kg i.v., time 5 h, rat id 2) of 22. It also gave a conc ([2]; single dose 12 mg/kg i.v., time 5 h, rat id 3) of 12, a conc ([2]; single dose 12 mg/kg i.v., time 8 h, rat id 1) of 7 and a conc ([2]; single dose 12 mg/kg i.v., time 8 h, rat id 2) of 3.76. It also gave a conc ([2]; single dose 12 mg/kg i.v., time 8 h, rat id 3) of 2.45, a conc ([2]; single dose 12 mg/kg i.v., time 12 h, rat id 1) of 1.45 and a conc ([2]; single dose 12 mg/kg i.v., time 12 h, rat id 2) of 0. For the same compound, the conc ([2]; single dose 12 mg/kg i.v., time 12 h, rat id 3) was 1.2, the conc ([2]; single dose 12 mg/kg i.v., time 24 h, rat id 1) was 0 and the conc ([2]; single dose 12 mg/kg i.v., time 24 h, rat id 2) was 0. For the same compound, the conc ([2]; single dose 12 mg/kg i.v., time 24 h, rat id 3) was 0, the conc ([2]; single dose 45 mg/kg s.c., time 0 h, rat id 1) was 4 and the conc ([2]; single dose 45 mg/kg s.c., time 0 h, rat id 2) was 3.71. It also gave a conc ([2]; single dose 45 mg/kg s.c., time 0 h, rat id 3) of 2, a conc ([2]; single dose 45 mg/kg s.c., time 0.5 h, rat id 1) of 16 and a conc ([2]; single dose 45 mg/kg s.c., time 0.5 h, rat id 2) of 19. For the same compound, the conc ([2]; single dose 45 mg/kg s.c., time 0.5 h, rat id 3) was 26, the conc ([2]; single dose 45 mg/kg s.c., time 1 h, rat id 1) was 55 and the conc ([2]; single dose 45 mg/kg s.c., time 1 h, rat id 2) was 40. It also gave a conc ([2]; single dose 45 mg/kg s.c., time 1 h, rat id 3) of 44, a conc ([2]; single dose 45 mg/kg s.c., time 2 h, rat id 1) of 98 and a conc ([2]; single dose 45 mg/kg s.c., time 2 h, rat id 2) of 64. The conc ([2]; single dose 45 mg/kg s.c., time 2 h, rat id 3) was 72, the conc ([2]; single dose 45 mg/kg s.c., time 3 h, rat id 1) was 82 and the conc ([2]; single dose 45 mg/kg s.c., time 3 h, rat id 2) was 109. For the same compound, the conc ([2]; single dose 45 mg/kg s.c., time 3 h, rat id 3) was 142, the conc ([2]; single dose 45 mg/kg s.c., time 4 h, rat id 1) was 117 and the conc ([2]; single dose 45 mg/kg s.c., time 4 h, rat id 2) was 89. For the same compound, the conc ([2]; single dose 45 mg/kg s.c., time 4 h, rat id 3) was 106, the conc ([2]; single dose 45 mg/kg s.c., time 5 h, rat id 1) was 93 and the conc ([2]; single dose 45 mg/kg s.c., time 5 h, rat id 2) was 95. The conc ([2]; single dose 45 mg/kg s.c., time 5 h, rat id 3) was 84, the conc ([2]; single dose 45 mg/kg s.c., time 8 h, rat id 1) was 63 and the conc ([2]; single dose 45 mg/kg s.c., time 8 h, rat id 2) was 68. For the same compound, the conc ([2]; single dose 45 mg/kg s.c., time 8 h, rat id 3) was 88, the conc ([2]; single dose 45 mg/kg s.c., time 12 h, rat id 1) was 52 and the conc ([2]; single dose 45 mg/kg s.c., time 12 h, rat id 2) was 37. For the same compound, the conc ([2]; single dose 45 mg/kg s.c., time 12 h, rat id 3) was 29, the conc ([2]; single dose 45 mg/kg s.c., time 24 h, rat id 1) was 0.82 and the conc ([2]; single dose 45 mg/kg s.c., time 24 h, rat id 2) was 0. It also gave a conc ([2]; single dose 45 mg/kg s.c., time 24 h, rat id 3) of 0.52, a conc ([2]; single dose 90 mg/kg s.c., time 0 h, rat id 1) of 5 and a conc ([2]; single dose 90 mg/kg s.c., time 0 h, rat id 2) of 7. It also gave a conc ([2]; single dose 90 mg/kg s.c., time 0 h, rat id 3) of 4, a conc ([2]; single dose 90 mg/kg s.c., time 0.5 h, rat id 1) of 53 and a conc ([2]; single dose 90 mg/kg s.c., time 0.5 h, rat id 2) of 42. It also gave a conc ([2]; single dose 90 mg/kg s.c., time 0.5 h, rat id 3) of 51, a conc ([2]; single dose 90 mg/kg s.c., time 1 h, rat id 1) of 58 and a conc ([2]; single dose 90 mg/kg s.c., time 1 h, rat id 2) of 80. The conc ([2]; single dose 90 mg/kg s.c., time 1 h, rat id 3) was 57, the conc ([2]; single dose 90 mg/kg s.c., time 2 h, rat id 1) was 116 and the conc ([2]; single dose 90 mg/kg s.c., time 2 h, rat id 2) was 143. For the same compound, the conc ([2]; single dose 90 mg/kg s.c., time 2 h, rat id 3) was 129, the conc ([2]; single dose 90 mg/kg s.c., time 3 h, rat id 1) was 125 and the conc ([2]; single dose 90 mg/kg s.c., time 3 h, rat id 2) was 175. The conc ([2]; single dose 90 mg/kg s.c., time 3 h, rat id 3) was 200, the conc ([2]; single dose 90 mg/kg s.c., time 4 h, rat id 1) was 161 and the conc ([2]; single dose 90 mg/kg s.c., time 4 h, rat id 2) was 148. For the same compound, the conc ([2]; single dose 90 mg/kg s.c., time 4 h, rat id 3) was 143, the conc ([2]; single dose 90 mg/kg s.c., time 5 h, rat id 1) was 158 and the conc ([2]; single dose 90 mg/kg s.c., time 5 h, rat id 2) was 168. For the same compound, the conc ([2]; single dose 90 mg/kg s.c., time 5 h, rat id 3) was 179, the conc ([2]; single dose 90 mg/kg s.c., time 8 h, rat id 1) was 128 and the conc ([2]; single dose 90 mg/kg s.c., time 8 h, rat id 2) was 151. For the same compound, the conc ([2]; single dose 90 mg/kg s.c., time 8 h, rat id 3) was 170, the conc ([2]; single dose 90 mg/kg s.c., time 12 h, rat id 1) was 78 and the conc ([2]; single dose 90 mg/kg s.c., time 12 h, rat id 2) was 116. The conc ([2]; single dose 90 mg/kg s.c., time 12 h, rat id 3) was 84, the conc ([2]; single dose 90 mg/kg s.c., time 24 h, rat id 1) was 2 and the conc ([2]; single dose 90 mg/kg s.c., time 24 h, rat id 2) was 6.44. For the same compound, the conc ([2]; single dose 90 mg/kg s.c., time 24 h, rat id 3) was 3.35.
